Results: publication PMC8997995, “Amphiphilic Cell-Penetrating Peptides Containing Natural and Unnatural Amino Acids as Drug Delivery Agents” (Cells, 2022)
Like-named read-outs stand apart in the source and are kept apart here. Non-standard residues stand in square brackets, D forms with d. Residues, ends and D or L forms follow the SMILES beside them. Dip = N[C@H](C(=O)O)C(c1ccccc1)c1ccccc1

Columns and labels:
[1] = Circular dichroism, estimate of secondary structure; type: physicochemical; settings: CD, 100 µM peptide in water, principal component regression analysis
Procedure: Samples were prepared in 100 µM concentration dissolved in water only. The cuvette with the 1 mm path length was used for all the measurements. The circular dichroism analysis was performed with a J-1500 Jasco spectrophotometer using nitrogen gas and PM-539 detector. Parameters were selected as follows: data interval 0.1 nm, data points 701, data pitch 0.1 nm, CD scale 200 mdeg/0.1 dOD, FL scale 200 mdeg/0.1 dOD, D.I.T 2 s, bandwidth 1 nm, cell length 1 mm, start mode immediately, scanning mode continuous, scanning speed 50 nm/min, shutter control auto, and N2 flowmeter manual. An average of three readings between 190 and 260 nm were collected for each sample. The analysis was carried out using one of Multivariate Regression Analyses, which is Principal Component Regression (PCR) with a basis set containing 26 proteins reference under the following conditions: standardization of result 100, replaced negative value to zero, and rejection percentage of 1%.

SK-OV-3 cells = type: cell-based, human; settings: MTS, n = 3
Procedure: SK-OV-3, CCRF-CEM, HEK-293, MDA-MB-468, LLC-PK1, and MES-SA were used to determine the cytotoxicity of the synthesized linear and cyclic peptides. About 5000, 10,000, and 50,000 cells were seeded for SK-OV-3, HEK-293, and CCRF-CEM cells, respectively, in 0.1 mL of medium per well of 96-well plates. An appropriate medium was used for each cell line (SK-OV-3: McCoy’s 5A with L-glutamine containing fetal bovine serum (FBS) (10%) and penicillin or streptomycin (1%); CCRF-CEM: RPMI-1640 medium with L-glutamine and sodium bicarbonate containing FBS (10%) and penicillin or streptomycin (1%); MDA-MB-468 cells: DMEM/F12 (1:1) (1×) with L-glutamine and 15 mM HEPES containing FBS (10%) and penicillin or streptomycin (1%); LLC-PK1 cells: Dulbecco’s Modified Eagle’s Medium with 4500 mg/L glucose, L-glutamine and sodium bicarbonate, without sodium pyruvate liquid containing FBS (10%) and penicillin or streptomycin (1%); MES-SA cells: consisting of half SK-OV-3 and half CCRF-CEM media; and HEK-293 cells: Minimum Essential Medium Eagle with Earle’s salts and sodium bicarbonate, without L-glutamine containing FBS (10%) and penicillin or streptomycin (1%)). Then, 20 µL of peptides containing 5% DMSO in water were added to each well.
Adhesive cells were detached with 0.05% trypsin/EDTA after 15 min. The suspended cells were seeded in the medium 24 h prior to the experiment according to the previously reported procedure. The medium was changed before adding the peptides for adherent cells. Each concentration 5, 10, 25, 50, and 166 µM (containing 0.8% DMSO) had triplicate wells to minimize possible errors. […] The cell viability was measured by utilizing Multi-Mode Microplate Reader (SpectraMax M5 model, Molecular Devices, San Jose, CA, USA) after adding 20 µL of the MTS reagent to each well and incubating for 3 additional hours. […] The protocol manager was selected “endpoint” on the spectrophotometer’s software (SoftMax Pro 7). The 96-well plates were inserted inside spectrophotometer, and the data were acquired. The percentage of cell viability was calculated using the following equation:(1) =(Average OD values of samples treated with the compound /Average OD values of no treatment samples )∗100

MES-SA cells = assay: In vitro cytotoxicity (MTS) in MES-SA cells; type: cell-based, human; settings: 10 µM, 24 h incubation, n = 3
Procedure: SK-OV-3, CCRF-CEM, HEK-293, MDA-MB-468, LLC-PK1, and MES-SA were used to determine the cytotoxicity of the synthesized linear and cyclic peptides. About 5000, 10,000, and 50,000 cells were seeded for SK-OV-3, HEK-293, and CCRF-CEM cells, respectively, in 0.1 mL of medium per well of 96-well plates. […]
Adhesive cells were detached with 0.05% trypsin/EDTA after 15 min. […] The cell viability was measured by utilizing Multi-Mode Microplate Reader (SpectraMax M5 model, Molecular Devices, San Jose, CA, USA) after adding 20 µL of the MTS reagent to each well and incubating for 3 additional hours. […] The percentage of cell viability was calculated using the following equation:(1) =(Average OD values of samples treated with the compound /Average OD values of no treatment samples )∗100

## N=C(N)NCCC[C@@H]1NC(=O)[C@H](C(c2ccccc2)c2ccccc2)NC(=O)[C@H](CCCNC(=N)N)NC(=O)[C@H](C(c2ccccc2)c2ccccc2)NC(=O)[C@H](CCCNC(=N)N)NC(=O)[C@H](C(c2ccccc2)c2ccccc2)NC(=O)[C@H](CCCNC(=N)N)NC(=O)[C@H](C(c2ccccc2)c2ccccc2)NC(=O)[C@H](CCCNC(=N)N)NC(=O)[C@H](C(c2ccccc2)c2ccccc2)NC1=O [[DipR]5] (cyclo([Dip]R[Dip]R[Dip]R[Dip]R[Dip]R))
[1]
  Other (random coil): 49.9%
  Turn: 16.6%
  α-helix: 21.4%
  β-sheet: 12.1%
SK-OV-3 cells; SK-OV-3, 10 µM, 72 h incubation
  reduction of cell proliferation: 75%
SK-OV-3 cells; SK-OV-3, 25 µM, 24 h incubation
  reduction of cell proliferation: 81%
MES-SA cells
  reduction of cell proliferation: 38%
